Data reported in patent US9540418B2, “Polypeptide specifically binding to rare earth nanoparticles and use thereof” (University of Science and Technology of China, priority 2012, dated 2017).

Assays:
mice liver = assay: Liver damage in mice livers (HE staining); type: in vivo, Balb/c mice; details: UCP+RE-1 or UCP+AP-1, tail vein, 24 hr
Description: Balb/c mice (purchased from SLAC Laboratory Animal (Shanghai, China), 6 weeks old, and weighed 20 g when used) were bred in a sterile housing, and then 300 μg (dosage: 15 mg/kg) UCN, UCN+PEG (containing 10 mg PEG), UCN+RE-1, UCP, UCP+RE-1, or UCP+AP-1 was injected through tail vein. An equal volume of normal saline was injected as a control. After 24 hr, the livers of the mice were removed and subjected to western blotting assay.
The mice livers obtained as described in Example 21 were in situ fixed with 2.5% glutaral-dimethyl arsine buffer (pH 7.4) at 4° C. for 1 hr, then fixed with 2% osmium tetroxide at room temperature for 1 hr, and then dehydrated with ethanol gradients. Then, the cell samples were embedded in paraffin. The embedded cell samples were cut into ultrathin slices, which were stained with HE (hematoxylin-eosin), and observed and imaged under fluorescence microscope.

HeLa cells = assay: Autophagosome formation in HeLa cells by transmission electron microscope; type: cell-based; details: 100 μg/mL UCN+RE-1 or UCP+RE-1, 24 hr
Description: HeLa cells were inoculated into a 24-well cell culturing plate at a density of about 3-5×10^4 cells/well, and cultured overnight for further use. At first, the medium was replaced with fresh DMEM medium, and then 100 μg/mL UCN, UCP, UCN+RE-1, or UCP+RE-1 was added. An equal volume of PBS was used as blank. After culturing for 24 hr, the cells were collected and in situ fixed with 2.5% glutaral-dimethyl arsine buffer (pH 7.4) at 4° C. for 1 hr, then fixed with 2% osmium tetroxide at room temperature for 1 hr, and then dehydrated with ethanol gradients. Then, the cell samples were embedded into epoxy resin (EPON812). The embedded cell samples were cut into ultrathin slices, which were stained with uranyl acetate and lead citrate, and observed and imaged under a transmission electron microscope (JEOL-1230, JEOL, Japan).

[1] = Dissociation of FITC-RE-1 from UCN over time; type: binding; details: after 48 h, 37° C., shaking
Description: 250 μg FITC-RE-1 was thoroughly mixed with 500 μg UCN. The excess and unbound polypeptides were washed off. Then, the mixture was divided into five aliquots. The aliquots were gently shaked on a shaking table at 37° C. The amount of FITC-RE-1 dissociated in the supernatants was measured by using a fluorescence spectrophotometer at different time points (0 hr, 2 hr, 12 hr, 24 hr, and 48 hr).

[2] = Binding of FITC-RE-1 to UCN (time, concentration, pH, salt, temperature); details: 50 μg FITC-RE-1, 100 μg UCN
Description: 50 μg of FITC-RE-1 was incubated with 100 μg of UCN for different time periods (2 min, 10 min, 30 min, 120 min, and 720 min). Then, the amount of FITC-RE-1 fluorescent peptide binding to UCN was measured by using fluorescence spectrophotometer.
100 μg of UCN was incubated with FITC-RE-1 at various concentrations (5 μg, 10 μg, 25 μg, 50 μg, and 100 μg) for 1 hr. The excess and unbound peptides were washed off. The amount of FITC-RE-1 fluorescent peptide binding to UCN was measured by using fluorescence spectrophotometer.
(§1) 50 μg of FITC-RE-1 was incubated with 100 μg of UCN dissolved at different pH values (pH 3, 5, 7, and 10) for 1 hr. The excess and unbound peptides were washed off. The amount of FITC-RE-1 fluorescent peptide binding to UCN was measured by using fluorescence spectrophotometer.
as §1, with “salt ion concentrations (0 M, 0.15 M, 0.3 M,” for “pH values (pH 3, 5, 7,”, “0.5 M NaCl)” for “10)”
50 μg of FITC-RE-1 was incubated with 100 μg of UCN dissolved in water at different temperatures (25° C., 37° C., 55° C., and 80° C.) for 1 hr. […] The amount of FITC-RE-1 fluorescent peptide binding to UCN was measured by using fluorescence spectrophotometer.

[3] = Inhibition of the binding of REOB-1 to Nd2O3 by RE-1 short peptide at various concentrations
Description: RE-1 short peptides at various concentrations (0 μg/mL, 1 μg/mL, 10 μg/mL, 50 μg/mL, 100 μg/mL, and 500 μg/mL) were incubated with 100 μL Nd2O3 (1 mg/mL) comprising REOB-1 phages at a titer of 10^8 at 37° C. for 2 hr. The resulting precipitate was washed 10 times. The phages binding to Nd2O3 were recovered. 5000 μg/mL of AP-1 short peptide was treated according to the same procedure as described above, as a control.

[4] = Binding ability of FITC-RE-1 to various inorganic nanomaterials (fluorescence spectrophotometer)
Description: 10 μg of FITC-RE-1 polypeptide was incubated with 100 μL of various inorganic nanomaterials (1 mg/mL) at room temperature for 1 hr, and then centrifuged at 12000 rpm for 10 min. The resulting precipitate was washed 3 times. Then, a fluorescence spectrophotometer (RF-5301 PC, Shimadzu, Japan) was used to detect FITC (emission wavelength: 535 nm). The standard curve of fluorescence intensity vs. concentration for FITC-RE-1 was used as control, and thus the binding ability of the various inorganic nanomaterials to FITC-RE-1 polypeptide was determined. […] However, RE-1 hardly bound to non rare-earth materials, such as diamond, TiO2, SiO2, SiO3, and nano-silver (FIG. 4).

For “ACTARSPWICG [RE-1, RE-0 with terminal amino acids A and G added]”, the “effect of coating on liver damage induced by UCP” value (mice liver) was “significantly reduced the level of the damages to livers”, the “inhibition of autophagosome formation induced by UCN, UCP” value (HeLa cells) was “significantly inhibited” and the “dissociation from UCN” value [1] was “less than 0.7%”. The “binding to UCN at 2 min” value ([2]; 2 min) was 50%, the “binding to UCN at 10 min” value ([2]; 10 min) was “almost binding saturation” and the “dependence of inhibition of REOB-1 binding to Nd2O3 on RE-1 concentration” value ([3]; 0-500 μg/mL RE-1) was “concentration-dependent”. For the same sequence, the “inhibition of the binding of REOB-1 to Nd2O3” value ([3]; RE-1 concentration greater than 10 μg/mL, REOB-1 titer 10^8, 37° C., 2 hr) was “nearly completely inhibited”, the “binding to rare-earth metal oxides and rare-earth upconversion nanophosphors” value ([4]; 10 μg FITC-RE-1, 1 mg/mL material, 1 hr, most strongly Y2O3, CeO2, Yb2O3, Nd2O3, UCN, UCN-S, UCP) was “strongly bound” and the “binding to non rare-earth materials” value ([4]; diamond, TiO2, SiO2, SiO3, nano-silver, 10 μg FITC-RE-1, 1 hr) was “hardly bound”.
